# From US20100197602A1, “USE OF FOLLICULAR GONADOTROPIN RELEASING PEPTIDE AS A THERAPEUTIC AGENT IN THE TREATMENT OF STREPTOCOCCUS PNEUMONIAE INFECTION” (priority 2007, published 2010)
# Residues, ends and D or L forms follow the SMILES beside them.
# Columns and labels:
# HIV-1IIIB = assay: HIV-1 antiviral assay (CPE reduction, MTS); type: cell-based; conditions: peptide 10 micrograms per ml, 6 days post-infection
# Pseudomonas aeruginosa = type: cell-based; conditions: 5 micrograms per ml
# Streptococcus pneumoniae = type: cell-based; conditions: 5 micrograms per ml
# MRSA = conditions: 5 micrograms per ml
# in vitro [1] = conditions: human, CEM-SS cells
# in vitro [2] = conditions: human, MRC-5 cells (human embryonal lung fibroblasts)
# [3] = Cell viability in HepG2-2.2.15 cells (dye uptake) of the HBV assay; conditions: human
# HCMV strain AD169 = assay: HCMV plaque reduction assay; type: cell-based; conditions: HCMV AD169 in MRC-5 cells; peptide 10 micrograms per ml; 7-10 days
# Source text: Ganciclovir was used as positive control.
smiles,measurement,setting,value
Cc1cn([C@H]2C[C@H](N=[N+]=[N-])[C@@H](CO)O2)c(=O)[nH]c1=O [AZT],% CPE reduction in HIV-1 infected CEM-SS cells,HIV-1IIIB,99%
"C[C@@H](O)[C@H](N)C(=O)N[C@@H](CC(=O)O)C(=O)N[C@H](C(=O)N[C@@H](CO)C(=O)N[C@@H](Cc1c[nH]cn1)C(=O)N[C@@H](Cc1c[nH]cn1)C(=O)N[C@@H](CC(=O)O)C(=O)N[C@@H](CCC(N)=O)C(=O)N[C@@H](CC(=O)O)C(=O)N[C@@H](Cc1c[nH]cn1)C(=O)N1CCC[C@H]1C(=O)N[C@H](C(=O)N[C@@H](Cc1ccccc1)C(=O)N[C@@H](CC(N)=O)C(=O)O)[C@@H](C)O)[C@@H](C)O [FGRP, Thr-Asp-Thr-Ser-His-His-Asp-Gln-Asp-His-Pro-Thr-Phe-Asn-OH] (H-TDTSHHDQDHPTFN-OH)",% inhibition,Pseudomonas aeruginosa,0.0%
same,% inhibition,Streptococcus pneumoniae,100.0%
same,% inhibition,MRSA,0.0%
same,viability at 10 micrograms per ml,in vitro [1],100%
same,viability at 144 h,in vitro [2],100%
same,"viability at 144 h, 10 micrograms per ml",[3],100%
Nc1nc(O)c2ncn(COC(CO)CO)c2n1 [Ganciclovir],% plaque reduction,HCMV strain AD169,100%
